Measurements from patent US20260042764A1, “COMPOSITIONS AND METHODS FOR INHIBITION OF KRAS” (TheRas, Inc., priority 2022, published 2026).

Columns and labels:
[1] = molecular target: T1, Avi-KRAS G12D (1-169) GppNHp/RAF1 RBD-3xFLAG (52-151) (Homo sapiens, UniProt P01116, G12D); assay: Raf1-KRAS G12D-GppNHP disruption HTRF assay (Biological Example 1); type: binding
T1 construct: Avi-KRAS G12D (1-169)
Summary of the method: (§1)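 Compound disruption of KRAS-GppNHp/RAF1 RBD binding read by HTRF after two sequential 1 h room-temperature incubations (protein mix, then detection reagents), shaken at 700 rpm. Buffer Tris pH 7.5 with MgCl2, BSA, Tween and 10% DMSO; results given as percent activity relative to DMSO (100%).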

[2] = molecular target: T2, Avi-KRAS G12R (1-169) GppNHp/RAF1 RBD-3xFLAG (52-151) (Homo sapiens, UniProt P01116, G12R); assay: Raf1-KRAS G12R-GppNHP disruption HTRF assay (Biological Example 1); type: binding
T2 construct: Avi-KRAS G12R (1-169)
T2 sequence (P01116 1-169 isoform P01116-2 G12R): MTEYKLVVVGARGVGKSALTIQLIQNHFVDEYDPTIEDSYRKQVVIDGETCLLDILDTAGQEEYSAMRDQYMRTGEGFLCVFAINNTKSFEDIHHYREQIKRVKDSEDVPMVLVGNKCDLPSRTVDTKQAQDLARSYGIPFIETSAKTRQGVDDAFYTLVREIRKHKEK
Summary of the method: as §1

[3] = molecular target: T3, Avi-KRAS G12V (1-169) GppNHp/RAF1 RBD-3xFLAG (52-151) (Homo sapiens, UniProt P01116, G12V); assay: Raf1-KRAS G12V-GppNHP disruption HTRF assay (Biological Example 1); type: binding
T3 construct: Avi-KRAS G12V (1-169)
T3 sequence (P01116 1-169 isoform P01116-2 G12V): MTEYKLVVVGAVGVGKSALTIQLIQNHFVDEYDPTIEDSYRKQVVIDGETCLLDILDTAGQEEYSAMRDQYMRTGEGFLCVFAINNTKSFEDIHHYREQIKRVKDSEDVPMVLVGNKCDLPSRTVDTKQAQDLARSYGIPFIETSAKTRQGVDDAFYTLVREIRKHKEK
Summary of the method: as §1

[4] = molecular target: T4, Avi-KRAS WT (1-169) GppNHp/RAF1 RBD-3xFLAG (52-151) (Homo sapiens, UniProt P01116); assay: Raf1-KRAS WT-GppNHP disruption HTRF assay (Biological Example 1); type: binding
T4 construct: Avi-KRAS WT (1-169)
T4 sequence (P01116 1-169 isoform P01116-2): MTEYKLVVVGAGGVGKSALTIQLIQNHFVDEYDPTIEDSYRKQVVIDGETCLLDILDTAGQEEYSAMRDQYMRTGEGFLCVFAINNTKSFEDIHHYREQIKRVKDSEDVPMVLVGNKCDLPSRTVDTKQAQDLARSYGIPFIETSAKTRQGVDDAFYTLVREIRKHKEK
Summary of the method: as §1

[5] = test system: GP2d cells (KRAS G12D); assay: Cell-based pERK HTRF assay in GP2d cell (Biological Example 2); details: GP2d (KRAS G12D) cells, pERK HTRF
Summary of the method: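 Cells grown in DMEM with 10% FBS were exposed to compound for 60 min at 0.25% DMSO, using a 9-point half-log series starting at 1 μM or 100 nM. Lysates were then mixed with d2 and Eu cryptate antibodies for 4–24 h at room temperature, and pERK was read by HTRF.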

[6] = test system: SW620 cells (KRAS G12V); assay: Cell-based pERK HTRF assay in SW620 cell (Biological Example 4); details: Homo sapiens, SW-620, SW620 (KRAS G12V) cells, pERK HTRF
Summary of the method: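 SW620 seeded in RPMI/10% FBS, next day dosed 4 h (top 1 μM, half-log, 9 pts, 0.25% DMSO). Lysed, pERK by d2/Eu cryptate HTRF, 4–24 h RT, 615 nm read.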

[7] = KRAS G12D, GppNHp-loaded, Table 11
[8] = KRAS G12R, GppNHp-loaded, Table 11
[9] = KRAS G12V, GppNHp-loaded, Table 11
[10] = KRAS WT, GppNHp-loaded, Table 11
[11] = KRAS G12D, GppNHp-loaded, class symbols
[12] = KRAS G12R, GppNHp-loaded, class symbols
[13] = KRAS G12V, GppNHp-loaded, class symbols
[14] = KRAS WT, GppNHp-loaded, class symbols

T1 sequence (P01116 1-169 isoform P01116-2 G12D): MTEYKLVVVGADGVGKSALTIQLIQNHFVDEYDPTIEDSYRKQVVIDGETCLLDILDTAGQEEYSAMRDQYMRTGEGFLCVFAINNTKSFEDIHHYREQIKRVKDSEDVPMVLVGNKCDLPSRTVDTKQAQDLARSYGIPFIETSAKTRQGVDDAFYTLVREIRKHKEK

Row | Structure (SMILES) | IC50 ([1]; KRAS G12D-GppNHp/RAF1 RBD HTRF) [nM] | IC50 ([2]; KRAS G12R-GppNHp/RAF1 RBD HTRF) [nM] | IC50 ([3]; KRAS G12V-GppNHp/RAF1 RBD HTRF) [nM] | IC50 ([4]; KRAS WT-GppNHp/RAF1 RBD HTRF) [nM] | IC50 ([5]; GP2d) [nM] | IC50 [6] [nM] | IC50 [1, 7] [nM] | IC50 [2, 8] [nM] | IC50 [3, 9] [nM] | IC50 [4, 10] [nM] | IC50 [1, 11] [nM] | IC50 [2, 12] [nM] | IC50 [3, 13] [nM] | IC50 [4, 14] [nM] | IC50 ([5]; GP2d, class symbols) [nM] | IC50 ([6]; class symbols) [nM] | IC50 [5] [nM]
1 | CC(=O)N1CCC[C@@H](N(C)c2nc(OC[C@@]34CCCN3C[C@H](F)C4)nc3c(F)c(-c4ccc(F)c5sc(N)c(C#N)c45)c(C(F)(F)F)cc23)C1 [Compound 295] | 100 to 1000 | 100 to 1000 | 100 to 1000 | 100 to 1000 | < 100 | < 100 |  |  |  |  |  |  |  |  |  |  | 
2 | CN1CCN(c2nc(OC[C@@]34CCCN3C[C@H](F)C4)nc3c(F)c(-c4ccc(F)c5sc(N)c(C#N)c45)c(C(F)(F)F)cc23)CC1=O [Compound 257] |  |  |  |  | < 100 | < 100 | 100 to 1000 | 1000 to 10000 | 1000 to 10000 | 100 to 1000 |  |  |  |  |  |  | 
3 | CCN(c1nc(OC[C@@]23CCCN2C[C@H](F)C3)nc2c(F)c(-c3ccc(F)c4sc(N)c(C#N)c34)c(C(F)(F)F)cc12)[C@@H]1CN2C(=O)OC[C@]2(C)C1 (atropisomer, axis not shown) [Compound 795] |  |  |  |  |  |  |  |  |  |  | < 100 | < 100 | < 100 | < 100 | < 100 | < 100 | 
4 | N#Cc1c(N)sc2c(F)ccc(-c3c(C(F)(F)F)cc4c(N5CCOCC(O)C5)nc(OC[C@@]56CCCN5C[C@H](F)C6)nc4c3F)c12 (stereo partly drawn) [Compound 266] |  |  |  |  | < 100 | < 100 | < 100 | < 100 | 100 to 1000 | < 100 |  |  |  |  |  |  | 
5 | CN(C)C(=O)N1CC[C@H]2[C@@H]1CN2c1nc(OC[C@@]23CCCN2C[C@H](F)C3)nc2c(F)c(-c3ccc(F)c4sc(N)c(C#N)c34)c(C(F)(F)F)cc12 (atropisomer, axis not shown) [Compound 728] |  |  |  |  |  |  |  |  |  |  | 1000 to 10000 | 1000 to 10000 | 1000 to 10000 | 1000 to 10000 | 100 to 1000 | 100 to 1000 | 
6 | CCN(c1nc(OC[C@@]23CCCN2C[C@H](F)C3)nc2c(F)c(-c3ccc(F)c4sc(N)c(C#N)c34)c(C(F)(F)F)cc12)[C@@H]1CC(=O)N(CC(F)F)C1 (atropisomer, axis not shown) [Compound 612] |  |  |  |  |  |  |  |  |  |  | < 100 | < 100 | < 100 | < 100 | < 100 | < 100 | 
7 | N#Cc1c(N)sc2c(F)ccc(-c3c(C(F)(F)F)cc4c(N5CC[C@@H]5CF)nc(OC[C@@]56CCCN5C[C@H](F)C6)nc4c3F)c12 [Compound 272] |  |  |  |  | < 100 | < 100 | 100 to 1000 | 100 to 1000 | 100 to 1000 | 100 to 1000 |  |  |  |  |  |  | 
8 | C[C@H]1[C@H](N(C)c2nc(OC[C@@]34CCCN3C[C@H](F)C4)nc3c(F)c(-c4ccc(F)c5sc(N)c(C#N)c45)c(C(F)(F)F)cc23)CCN1C(=O)C1CC1 [Compound 301] | 100 to 1000 | 1000 to 10000 | 1000 to 10000 | 100 to 1000 | < 100 | < 100 |  |  |  |  |  |  |  |  |  |  | 
9 | CCN1C[C@@H]2C[C@H](N(CC)c3nc(OC[C@@]45CCCN4C[C@H](F)C5)nc4c(F)c(-c5ccc(F)c6sc(N)c(C#N)c56)c(C(F)(F)F)cc34)CN2C1=O (atropisomer, axis not shown) [Compound 762] |  |  |  |  |  |  |  |  |  |  | < 100 | < 100 | < 100 | < 100 | < 100 | < 100 | 
10 | CCN(c1nc(OC[C@@]23CCCN2C[C@H](F)C3)nc2c(F)c(-c3ccc(F)c4sc(N)c(C#N)c34)c(C(F)(F)F)cc12)[C@H]1CCN(C(=O)[C@@H]2CCCO2)C1 (atropisomer, axis not shown) [Compound 745] |  |  |  |  |  |  |  |  |  |  | < 100 | < 100 | < 100 | < 100 | < 100 | < 100 | 
11 | C[C@@H]1[C@H](N(C)c2nc(OC[C@@]34CCCN3C[C@H](F)C4)nc3c(F)c(-c4ccc(F)c5sc(N)c(C#N)c45)c(C(F)(F)F)cc23)CCN1C(=O)C(F)F [Compound 458] | 100 to 1000 | 100 to 1000 | 100 to 1000 | 100 to 1000 | < 100 | < 100 |  |  |  |  |  |  |  |  |  |  | 
12 | CCN(c1nc(OC[C@@]23CCCN2C[C@H](F)C3)nc2c(F)c(-c3ccc(F)c4sc(N)c(C#N)c34)c(C(F)(F)F)cc12)[C@H]1CC(=O)N(C(C)C)C1 [Compound 528] | 1000 to 10000 | 1000 to 10000 | 1000 to 10000 | 1000 to 10000 | < 100 | 100 to 1000 |  |  |  |  |  |  |  |  |  |  | 
13 | CCN(c1nc(OC[C@@]23CCCN2C[C@H](F)C3)nc2c(F)c(-c3ccc(F)c4sc(N)c(C#N)c34)c(C(F)(F)F)cc12)[C@H]1CC(=O)N(CCF)C1 (atropisomer, axis not shown) [Compound 635] |  |  |  |  |  |  |  |  |  |  | < 100 | < 100 | 100 to 1000 | < 100 | < 100 | < 100 | 
14 | N#Cc1c(N)sc2c(F)ccc(-c3c(C(F)(F)F)cc4c(N5CCc6[nH]ncc6C5)nc(OCC56CCCN5CC(F)C6)nc4c3F)c12 (stereo not drawn) [Compound 449] | 1000 to 10000 | 1000 to 10000 | 1000 to 10000 | 1000 to 10000 | 100 to 1000 | 100 to 1000 |  |  |  |  |  |  |  |  |  |  | 
15 | CCN(c1nc(OC[C@@]23CCCN2C[C@H](F)C3)nc2c(F)c(-c3ccc(F)c4sc(N)c(C#N)c34)c(C(F)(F)F)cc12)[C@H]1CCN(C(=O)N2CCCC2)C1 [Compound 542] | < 100 | < 100 | < 100 | < 100 | < 100 | < 100 |  |  |  |  |  |  |  |  |  |  | 
16 | C[C@@H]1[C@H](N(C)c2nc(OC[C@@]34CCCN3C[C@H](F)C4)nc3c(F)c(-c4ccc(F)c5sc(N)c(C#N)c45)c(Cl)cc23)CCN1C(=O)CF [Compound 460] | 100 to 1000 | 100 to 1000 | 100 to 1000 | 100 to 1000 |  | < 100 |  |  |  |  |  |  |  |  |  |  | < 100
17 | N#Cc1c(N)sc2c(F)ccc(-c3c(C(F)(F)F)cc4c(N5CCO[C@@H]6C[C@@H]65)nc(OC[C@@]56CCCN5C[C@H](F)C6)nc4c3F)c12 [Compound 411] | 100 to 1000 | 100 to 1000 | 100 to 1000 | 100 to 1000 | < 100 | < 100 |  |  |  |  |  |  |  |  |  |  | 
18 | CCN(CC)C(=O)N1CCC(N(CC)c2nc(OCC34CCCN3CC(F)C4)nc3c(F)c(-c4ccc(F)c5sc(N)c(C#N)c45)c(C(F)(F)F)cc23)C1 (stereo not drawn) [Compound 572] |  |  |  |  |  |  |  |  |  |  | < 100 | < 100 | 100 to 1000 | < 100 | < 100 | < 100 | 
